The values below come from patent publication US20210161837A1, “METHODS FOR TREATING CANCER WITH RORGAMMA INHIBITORS” (The Regents of the University of California, priority 2016, published 2021).

In general, EC50 refers to the concentration needed to bring the measured effect to its halfway point. Usually IC50 stands for the midpoint of a concentration-inhibition curve. Low values mean higher potency, high ones lower potency.

One test has as its target T1, RORγ (Homo sapiens, UniProt P51449).
T1 construct: reporter gene assay in 293T cells with Gal4-RORγ LBD expression vectors; expressed in transfected cells; host or cells: 293T cells
Description: RORγ transcriptional activity, reporter gene assay in 293T cells with Gal4-RORγ LBD expression vectors. The note with it: read-out: EC50, inhibition of RORγ constitutive activity. In kind it is cell-based. Here is the method: The 2-([1,1′-biphenyl]-4-yl)-1,1,1,3,3,3-hexafluoropropan-2-ol group of SR2211 was kept, while the amide group of the GSK agonist was chosen as linker. FIG. 2B illustrates RORγ transcriptional activity measured by reporter gene assay in 293T cells with Gal4-RORγ LBD expression vectors. EC50 values are reported as means±s.d. for ≥8 separate titrations from 10 μM. In vitro binding to the ligand binding domain (LBD) was measured by AlphaScreen and by thermal shift assay (TSA).
For example, the phenyl group in the middle likely forms a π-π interaction with the side chain of Phe378 of the LBD, while the amide group can form a direct hydrogen bond with Phe377. The nitro group and hydroxyl group at the two ends may form hydrogen bonds with Glu379 and His479, respectively.

In another test the test system is CRPC cells. Description: Growth inhibition of CRPC cells compared with enzalutamide. In kind it is cell-based, human. Here is the method: (§1) Data shown are mean percentage of apoptotic cells±s.d. […] Data shown are mean±s.d. Significance was calculated using Student's t-test. *p<0.05, **p<0.01.
(§2) (a&b) C4-2B and 22Rv1 cell proliferation after the RORγ antagonist treatment. Cells were seeded in 6-well plates and counted after cells were treated with indicated concentrations of RORγ antagonists for 0, 2, 4 and 6 days by Coulter counter. […] (e) representative images of TUNEL positive cells treated with vehicle or the antagonist (5 μM) in 22Rv1 cells are shown. […] Three days later, cells were harvested for immunoblotting with indicated antibodies.
(§3) LNCaP, C4-2B, 22Rv, PC-3, and PC346C prostate cancer cells were cultured in RPMI1640, VCaP, HEK293T and human fibroblast IMR90 cells were in DMEM, LAPC-4 was in Iscove's MEM (all from Corning), and RWPE-1 and PZ-HPV-7 were in Keratinocyte Serum Free Medium (K-SFM) (Invitrogen) with the supplements. All the culture media except for RWPE-1 and PZ-HPV-7 were supplemented with 10% FBS (Hyclone) except indicated otherwise. For experiments, C4-2B cells were cultured in RPMI supplemented with 9% cds-FBS plus 1% regular FBS (to mimic the CRPC condition) unless indicated otherwise and 22Rv1 cells were cultured in RPMI supplemented with 10% cds-FBS. Cells were grown at 37° C. in 5% CO2 incubators. LNCaP, VCaP, 22Rv1, PC-3, 293T, IMR90, PZ-HPV-7 and RWPE-1 were from ATCC. […]

In a further test the test system is 22Rv1 cells. Nature of the test: Cell survival: colony formation and apoptosis (caspase-3/7, TUNEL). In kind it is cell-based, human. The procedure: as §1, §2, §3
A further test concerns C4-2B cells. The test is described as above. In kind it is cell-based, human. Here is the method: as §1, §2, §3
In the next test the test system is AR expression. Nature of the test: Immunoblotting of AR expression in 22Rv1, LAPC4 and PC346C cells. In kind it is cell-based, human. The note with it: 22Rv1, LAPC4, PC346C cells, 72 hours. Here is the method: Total RNA was isolated from cells in 6-well or 10-cm plates or from xenograft tumors, and the cDNA was prepared, amplified and measured in the presence of SYBR as described in Yang, P., et al., Molecular and cellular biology 32, 3121-3131 (2012). Briefly, the fluorescent values were collected and a melting curve analysis was performed. Fold difference was calculated as described previously Yang, P., et al. (see, id). The experiments were performed at least three times with data presented as mean values±s.d. Cell lysates were analyzed by immunoblotting with antibodies specifically recognizing RORγ, AR, AR-V7 and the indicated proteins.
Background: A western blot detects proteins with antibodies after separation by electrophoresis.

The next test concerns C4-2B xenografts. Nature of the test: C4-2B xenograft tumor growth. The class given is in vivo, mouse. The note with it: 20 mg/kg, i.p., 5 times a week, 21-24 days.
The subject of another test is 22Rv1 xenografts. Nature of the test: 22Rv1 xenograft tumor growth. The class given is in vivo, mouse. The note with it: 5 mg/kg, i.p., 5 times a week, 21-24 days.
For test [1], the system named is lung cancer cells (A427, Calu1, A549, H23, H358, H1666, HCC827, PC-9, H69, H209). Description: Cell viability (CellTiter-GLO), 4 days, lung cancer cells. The note with it: Homo sapiens, 96 h, NSCLC and SCLC lung cancer cells. The class given is cell-based. An excerpt: All those cells are derived from human tumors of non-small cell lung carcinoma (NSCLC).
In test [2] the test system is gastric cancer KATO III cells. Nature of the test: Cell viability (Cell-Titer GLO), 4 days, gastric cancer cells. In kind it is cell-based, human. The procedure: Experiments were independently performed three times.
For cell viability, cells were seeded in 96-well plates at 1500-2500 cells per well (optimum density for growth, depending on the specific cell line) in a total volume of 100 μl media. Serially diluted compounds in 100 μl of media were added to the cells 12 hours later. After 4 days of incubation, Cell-Titer GLO reagents (Promega) were added and luminescence was measured on GLOMAX microplate luminometer (Promega), according to the manufacturer's instructions. All experimental points were set up as sextuplicate as biological replication and the entire experiments were repeated three times. The data are presented as percentage of viable cells with vehicle treated cells set as 100.

Test [3] has as its system SUM159 orthotopic xenograft tumors. Nature of the test: TNBC SUM159 orthotopic xenograft tumor growth in SCID mice. The note with it: 5 mg/kg, i.p., 5 times per week, 45 days. The class given is in vivo, mouse. The procedure:
Orthotopic xenograft tumor models and chemical compound treatments: Four-week-old female SCID C.B17 mice (for TNBC SUM159 cell lines) were purchased from Harlan Inc. For establishing tumors, 2×10^6 cells were suspended in total of 100 μL PBS/Matrigel (1:1) and implanted orthotopically into the 4th inguinal mammary fat pads at both sides. Animal group size of six or more was estimated to have a high statistical power, based on power calculation (www.biomath.info/pgwer/) and 20 previous studies involving the same xenograft models. When the tumor volume was approximately 50 mm^3, the mice were randomized and then treated intraperitoneally (i.p.) with 100 μl of vehicle or RORγ inhibitors F18/No. 37, 5 mg/kg; GSK805, 5 mg/kg; GNE3500, 5 mg/kg. (in a formulation of 15% Cremophor EL, Calbiochem, 82.5% PBS, and 2.5% DMSO) for five times per week. Tumor growth was monitored by calipers with volume calculated using the equation: π/6 (length×width^2). Mouse body weight during the course of the study was also monitored. At the end of the studies, mice were killed and tumors were dissected and weighed.

T1 sequence (P51449 269-508 limits assumed): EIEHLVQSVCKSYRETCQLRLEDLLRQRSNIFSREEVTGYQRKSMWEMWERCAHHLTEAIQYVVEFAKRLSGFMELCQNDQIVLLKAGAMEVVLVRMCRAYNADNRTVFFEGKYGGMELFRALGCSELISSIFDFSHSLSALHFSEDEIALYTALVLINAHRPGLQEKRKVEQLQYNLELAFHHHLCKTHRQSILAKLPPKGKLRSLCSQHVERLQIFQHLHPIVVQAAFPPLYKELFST

As to `O=C(Cc1ccccc1[N+](=O)[O-])Nc1ccc(-c2ccc(C(O)(C(F)(F)F)C(F)(F)F)cc2F)cc1` [XY018, N-(2′-fluoro-4′-(1,1,1,3,3,3-hexafluoro-2-hydroxypropan-2-yl)-[1,1′-biphenyl]-4-yl)-2-(2-nitrophenyl)acetamide], the half-maximal effective concentration (EC50) on RORγ is 190 nM. Further, in the test on CRPC cells, the “growth inhibition, potency relative to enzalutamide” value is given as “strong growth inhibition with much higher potencies than that of enzalutamide”. Besides, the “inhibition of cell survival (colony formation, apoptosis)” value with 22Rv1 cells and in the test on C4-2B cells was “pronounced inhibition of cell survival” throughout. Besides, the AR expression result in the test with AR expression is on record as “potent does dependent XY018 inhibition of AR expression”. The tumor growth inhibition entry in the test on C4-2B xenografts and in the test with 22Rv1 xenografts was “strong tumor growth inhibition” throughout. Besides, the IC50 in test [1] was 3300 to 9000 nM. The “inhibition of growth and survival” value in [2] is “strongly inhibited the growth and survival”. For the same compound, the “orthotopic tumor growth inhibition” value in test [3] is reported as “effectively inhibited the orthotopic TNBC tumor growth”.
